# Values quoted from earlier work in PMC10011554, “BET inhibitor trotabresib in heavily pretreated patients with solid tumors and diffuse large B-cell lymphomas” (Nature Communications, 2023).
# Like-named read-outs stand apart in the source and are kept apart here.
# What was measured:
# [1] = test system: FOSL1 gene expression in U-87 glioblastoma cells; set-up: method as in Investigator's Brochure; conditions: U-87 cells, ref Investigator's Brochure; read-out: IC50, inhibition of FOSL1 gene expression; cited from earlier work
# [2] = ref Investigator's Brochure, cited from earlier work
# [3] = set-up: method as in Investigator's Brochure; conditions: 2 hours postdose, ref Investigator's Brochure, cited from earlier work
# [4] = test system: bacterial reverse mutation; set-up: method as in Investigator's Brochure; conditions: non-GLP, ref Investigator's Brochure; cited from earlier work
# SU-DHL-2 (ABC DLBCL) = test system: SU-DHL-2 (ABC DLBCL); set-up: method as in Report CC-90010-Pharm-1018; conditions: SU DHL 2, Experiment 2, ref Report CC-90010-Pharm-1018; read-out: absolute IC50, proliferation; cited from earlier work
# OCT2 = test system: OCT2; set-up: method as in Investigator's Brochure; conditions: OCT2, ref Investigator's Brochure; read-out: IC50, transporter inhibition; cited from earlier work
# CYP2C19 = test system: CYP2C19; set-up: method as in Investigator's Brochure; conditions: CYP2C19, ref Investigator's Brochure; read-out: IC50, direct inhibition; cited from earlier work
# SU-DHL-4 (DOX-R) = test system: SU-DHL-4 (DOX-R); set-up: method as in Report CC-90010-Pharm-1018; conditions: Table 2, ref Report CC-90010-Pharm-1018, read-out: absolute IC50, proliferation; cited from earlier work
# COH70 TNBC PDX = test system: COH70 TNBC PDX; set-up: method as in Unpublished data from Celgene Corporation; conditions: Day 38, ref Unpublished data from Celgene Corporation, cited from earlier work
# OATP1B1 = test system: OATP1B1; set-up: method as in Investigator's Brochure; conditions: OATP1B1, ref Investigator's Brochure; read-out: IC50, transporter inhibition; cited from earlier work
# GBM3 GBM PDX = test system: GBM3 GBM PDX; set-up: method as in Unpublished data from Celgene Corporation; conditions: ref Unpublished data from Celgene Corporation, cited from earlier work
# [5] = test system: CYP1A2, CYP2A6, CYP2B6, CYP2C8, CYP2C9, CYP2C19, CYP2D6, CYP2E1, and CYP3A4/5; set-up: method as in Investigator's Brochure; conditions: all nine isozymes tested, ref Investigator's Brochure; cited from earlier work
# [6] = set-up: method as in Unpublished data from Celgene Corporation; conditions: COH70 study, ref Unpublished data from Celgene Corporation; cited from earlier work
# OCI-LY-10 (DOX-R) = test system: OCI-LY-10 (DOX-R); set-up: method as in Report CC-90010-Pharm-1018; conditions: Table 2, ref Report CC-90010-Pharm-1018, read-out: absolute IC50, proliferation; cited from earlier work
# three TNBC models = test system: three TNBC models; set-up: method as in Investigator's Brochure; conditions: ref Investigator's Brochure, read-out: overall mean IC50, colony formation; cited from earlier work
# [7] = set-up: method as in Unpublished data from Celgene Corporation; conditions: after final dose, ref Unpublished data from Celgene Corporation, cited from earlier work
compound,measurement,setting,value
Cn1cc(-c2cc(S(C)(=O)=O)ccc2OCC2CC2)c2ccccc2c1=O [trotabresib],IC50,[1],30 nM
same,severely toxic dose,[2]; 4-week Beagle dog study,7.50 mg base/kg/dose
same,cardiovascular and respiratory effects,[2]; conscious Beagle dogs,"no CC-90010-related effects on electrocardiograms, heart rate"
same,highest non-severely toxic dose (HNSTD),"[2]; dog, 3-days-on/4-days-off schedule",3.75 mg base/kg/dose
same,mean exposure corresponding to the dog HNSTD,[2],10000 ng·h/mL
same,maximally-measured tumor level,"[3]; COH70, 2 mg/kg",1.3 ± 0.3 µM
same,maximally-measured tumor level,"[3]; COH70, 10 mg/kg",6.7 ± 1.7 µM
same,mutagenicity (Ames),[4],non-mutagenic
same,IC50,SU-DHL-2 (ABC DLBCL),100 nM
same,IC50,OCT2,8240 nM
same,IC50,CYP2C19,≥ 13900 nM
same,IC50,SU-DHL-4 (DOX-R),899 nM
same,mean percent TGI,"COH70 TNBC PDX; COH70, 12.5 mg/kg/dose PO QD 3 days on/4 days off",64%
same,mean percent TGI,"COH70 TNBC PDX; COH70, 16 mg/kg/dose PO QD 3 days on/4 days off",68%
same,mean percent TGI,"COH70 TNBC PDX; COH70, 20 mg/kg/dose PO QD 3 days on/4 days off",72%
same,IC50,OATP1B1,4940 nM
same,TGI,"GBM3 GBM PDX; GBM3, 6 mg/kg orally BID",76%
same,TGI,"GBM3 GBM PDX; GBM3, 12 mg/kg orally QD",63%
same,time-dependent inhibition,[5],little to no time-dependent
same,daily dose up to which well tolerated,[6],25 mg/kg
same,IC50,OCI-LY-10 (DOX-R),1100 nM
same,IC50,three TNBC models,110 ± 40 nM
same,"AUC0-24hr, steady state",[7]; 12.5 mg/kg,"12,003 ng·hr/mL"
same,"AUC0-24hr, steady state",[7]; 16 mg/kg,"15,174 ng·hr/mL"
